{"source": "patent US20250283049A1", "about": "“AGENT FOR CULTURING ORGANOID IN ABSENCE OF EXTRACELLULAR MATRIX” (KEIO UNIVERSITY, priority 2022, published 2025)", "key": {"[1]": {"system": "immunodeficient mouse (NOG mouse) colon", "test": "Orthotopic xenotransplantation of organoids established in absence of Matrigel", "type": "in vivo", "conditions": "organoids established in absence of Matrigel and presence of TRULI, 1×10^7 cells", "excerpt": "The human colon-derived organoids established in the absence of Matrigel (registered trademark) and in the presence of TRULI in Experimental Example 22 were orthotopically xenotransplanted into an immunodeficient mouse (NOG mouse) to examine whether they would engraft.\nFIG. 31 is a schematic view explaining an overview of this experimental example. The human colon-derived organoids established in the absence of Matrigel (registered trademark) and in the presence of TRULI were electroporated with a green fluorescent protein (GFP) expression vector to obtain GFP-labeled human colon-derived organoids.\nSubsequently, the GFP-labeled human colon-derived organoids were dissociated into single cells and then pre-cultured for 4 days in a medium supplemented with 2% Matrigel (registered trademark) or 2% collagen gel (50% type IA, 50% type IC). […]\nSubsequently, the total cell number of the pre-cultured GFP-labeled human colon-derived organoids was counted, and the cells were suspended in Advanced DMEM/F12 medium supplemented with 10% (vol/vol) Matrigel (registered trademark) or type IA collagen. […]"}, "[2]": {"system": "human small intestine-derived organoids dissociated into single cells", "test": "Organoid formation from single cells", "type": "cell-based", "excerpt": "Therefore, to examine whether signals from cell-to-cell interactions are involved in cell proliferation mediated by transcriptional regulation of YAP-TEAD by LATS inhibition, human small intestine-derived organoids were dissociated into single cells and then observed organoid formation from the single cells.\nFIG. 9 presents representative photographs showing the results of organoid formation from single cells in the presence or absence of Matrigel (registered trademark) and in the absence or presence of Lats-IN (final concentration: 10 μM). In FIG. 9, the arrowheads indicate cells or organoids. In addition, D1, D4, and D7 indicate the first, fourth, and seventh days, respectively, after the start of culture. […] In addition, the percentage (%) of cells that formed organoids among the seeded single cells is also shown."}, "[3]": {"system": "human small intestine-derived organoids", "test": "Immunostaining for localization of YAP and Ki67", "type": "cell-based", "conditions": "10 μM Lats-IN; in both presence and absence of Matrigel; approximately 10% without Lats-IN", "description": "Human small intestine-derived organoids and human large intestine-derived organoids were cultured in the absence and presence of Matrigel (registered trademark) and in the absence and presence of a LATS kinase inhibitor (final concentration: 10 μM) in the same manner as in Experimental Example 2. Subsequently, immunostaining was performed to confirm the localization of YAP. In addition, Ki67, a marker for cell proliferation, was detected to confirm proliferating cells.\nThe fields of view in the second, third, and fourth panels from the top correspond to the area enclosed in the square in the uppermost panel.\nThe fields of view in the second, third, and fourth panels from the top correspond to the area enclosed in the square in the uppermost panel. The scale bar represents 50 μm. […]\nFIG. 7 is a graph summarizing the results of FIGS. 5 and 6. As a result, in both the presence and absence of Matrigel (registered trademark), in the absence of Lats-IN, YAP was localized in the cytoplasm, and when the number of Ki67-positive cells, which indicates cell proliferation, was counted, the percentage of Ki67-positive cells was approximately 10% of the total cells. In contrast, in both the presence and absence of Matrigel (registered trademark), in the presence of Lats-IN, the number of cells in which YAP was localized in the nucleus was counted. […]"}, "AXIN2 gene": {"system": "AXIN2 gene", "test": "AXIN2 gene expression by quantitative real-time PCR in human small intestine-derived organoids", "type": "cell-based", "conditions": "absence of Matrigel; Lats-IN 10 μM", "description": "Human small intestine-derived organoids and human large intestine-derived organoids were cultured in the absence or presence of Matrigel (registered trademark) and in the absence or presence of Lats-IN (final concentration: 10 μM), and the expression level of the AXIN2 gene, whose expression is regulated by Wnt, was examined by quantitative real-time PCR.\nFIG. 16 presents graphs showing the results of quantitative real-time PCR."}, "[4]": {"system": "crypts isolated from human large intestine-derived tissue", "test": "Organoid establishment from isolated crypts in absence of Matrigel; time-course ATP and passaging", "type": "cell-based", "conditions": "Lats-IN 10 μM, without Lats-IN died after second passage", "description": "Crypts were isolated from human small intestine- and large intestine-derived tissues. The isolated crypts were cultured in the absence of Matrigel (registered trademark) and in the absence or presence of Lats-IN (final concentration: 10 μM).\nFIG. 10 is a graph showing the results of a time-course measurement of proliferation of the crypts isolated from the human large intestine-derived tissue over time. The cell proliferation was measured by measuring ATP using a commercially available kit (product name “CellTiter-Glo 3D,” Promega Corporation). The vertical axis of the graph represents luminescence intensity (relative value) indicating the amount of ATP present."}}, "data": [{"smiles": "O=C(N=c1sccn1Cc1ccccc1)c1c[nH]c2ncccc12", "note": "[Lats-IN]", "values": [{"measurement": "engraftment of human colon-derived organoids established with TRULI", "setting": "[1]", "value": "could engraft"}, {"measurement": "organoid formation from single cells", "setting": "[2]; absence of Matrigel, presence of Lats-IN 10 μM, up to day 7", "value": "proliferated from single cells and formed organoids"}, {"measurement": "percentage of cells that formed organoids", "setting": "[2]; presence of Matrigel and Lats-IN compared with absence of Matrigel and presence of Lats-IN", "value": "higher"}, {"measurement": "percentage of Ki67-positive cells", "setting": "[3]", "value": "≥ 50 % of the total cells"}, {"measurement": "expression level of AXIN2", "setting": "AXIN2 gene", "value": "increased to a level equivalent to that in the presence of Matrigel"}, {"measurement": "passaging and proliferation of isolated crypts (organoid establishment)", "setting": "[4]", "value": "able to undergo passage almost continuously without cessation of cell proliferation"}]}]}
